Target: T1, human Keap1 kelch domain (amino acids Ala321-Thr609) (Homo sapiens, UniProt Q14145)
T1 construct: human Keap1 kelch domain (amino acids Ala321-Thr609)
Experiment: Keap1-Nrf2 peptide binding assay (fluorescence polarisation)
Conditions: binding of Keap1 kelch domain (20 nM) to fluorescently labeled Nrf2 peptide Alexa633-AFFAQLQLDEETGEFL (50 nM); ambient temperature
Procedure: Keap1-Nrf2 peptide binding assay
A fluorescence polarisation assay was used to measure binding of the human Keap1 kelch domain (amino acids Ala321-Thr609) to a fluorescently labeled peptide containing a Keap1 binding site of human Nrf2 (Alexa633-AFFAQLQLDEETGEFL; JPT Technologies, Berlin, Germany). Two microliters of test compound in reaction buffer (phosphate-buffered saline, 2 mM DL-dithiothreitol, 0.015 % (v/v) Brij-35) containing 6 % (v/v) DMSO were mixed with two microliters of the Keap1 kelch domain in reaction buffer in a black 384-well small volume microtiter plate and incubated at ambient temperature for 15 minutes. Thereafter, two microliters were added of the fluorescently labeled Nrf2 peptide in reaction buffer, and the mixture was incubated for a further 30 minutes at ambient temperature. Final concentrations of the Keap1 kelch domain and the fluorescently labeled Nrf2 peptide were 20 nM and 50 nM, respectively. Fluorescence polarization (FP) was measured at excitation and emission wavelengths of 635 nm and 660 nm, respectively. Positive controls for binding (two microliters of reaction buffer containing 6 % (v/v) DMSO instead of test compound in the same buffer) and negative controls (as positive controls, but without Keap1 kelch domain) were included on each microtiter plate. Data were expressed as percent-inhibition values: percent inhibition = 100⋅(1-(|FPcompound-FPnegative control|)/(|FPpositive control-FPnegative control|)) [formula]
IC50 values were determined by testing different compound concentrations and fitting the resulting percent-inhibition values to the following equation using XLFit4: percent inhibition = A + (B-A)/(1 + (((IC50)/([Compound])))^D) [formula]
Parameter A was set to zero, pre-fit values for parameters B and D were set to 100 and 1, respectively.

T1 sequence (Q14145 321-609): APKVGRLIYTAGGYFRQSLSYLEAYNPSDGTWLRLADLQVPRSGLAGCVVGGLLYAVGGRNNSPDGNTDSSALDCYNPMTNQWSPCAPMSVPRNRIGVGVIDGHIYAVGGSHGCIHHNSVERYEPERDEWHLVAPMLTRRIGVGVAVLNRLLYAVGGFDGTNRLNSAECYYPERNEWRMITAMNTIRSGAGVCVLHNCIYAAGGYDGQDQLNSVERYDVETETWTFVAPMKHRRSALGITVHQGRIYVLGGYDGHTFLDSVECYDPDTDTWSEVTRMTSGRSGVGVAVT

Compound: Cc1cc(C)c(C)c(S(=O)(=O)Nc2cc(C3CCCC3C(=O)O)cc3ccccc23)c1C (stereo not shown) [Example 3, 2-[4-[(2,3,5,6-tetramethylphenyl)sulfonylamino]-2-naphthyl]cyclopentaneca rboxylic acid]
- IC50: 5.2 µM

Compound: Cc1cc(C)c(C)c(S(=O)(=O)Nc2cc(C(CC(=O)O)c3ccccc3)cc3ccccc23)c1C (stereo not shown) [Example 4, 3-phenyl-3-[4-[(2,3,5,6-tetramethylphenyl)sulfonylamino]-2-naphthyl]propanoic acid]
- IC50: 14.4 µM

Compound: CCCCCC(CC(=O)O)c1cc(NS(=O)(=O)c2c(C)c(C)cc(C)c2C)c2ccccc2c1 (stereo not shown) [Example 1, 3-[4-[(2,3,5,6-tetramethylphenyl)sulfonylamino]-2-naphthyl]octanoic acid]
- IC50: 13 µM

Compound: Cc1cc(C)c(C)c(S(=O)(=O)Nc2ccc(CC(C(=O)O)c3cccc(C(F)(F)F)c3)c3ccccc23)c1C (stereo not shown) [Example 14, 3-[4-[(2,3,5,6-tetra-methylphenyl)sulfonylamino]-1-naphthyl]-2-[3-(trifluoromethyl)phenyl]pr opanoic acid]
- IC50: 4 µM

Compound: Cc1cc(C)c(C)c(S(=O)(=O)Nc2cc(C3=CCC(C(=O)O)CC3)cc3ccccc23)c1C (stereo not shown) [Example 9, 4-[4-[(2,3,5,6-tetramethylphenyl)sulfonylamino]-2-naphthyl]cyclohex-3-ene-1-carboxylic acid]
- IC50: 2.9 µM

Compound: Cc1cc(C)c(C)c(S(=O)(=O)Nc2cc(CC(C(=O)O)C(F)(F)F)cc3ccccc23)c1C (stereo not shown) [Example 10, 3,3,3-trifluoro-2-[[4-[(2,3,5,6-tetramethylphenyl)sulfonylamino]-2-naphthyl]methyl]propanoi c acid]
- IC50: 15.7 µM

Compound: CCCCCC(Oc1cc(NS(=O)(=O)c2c(C)c(C)cc(C)c2C)c2ccccc2c1)C(=O)O (stereo not shown) [Example 5, 2-[[4-[(2,3,5,6-tetramethylphenyl)sulfonylamino]-2-naphthyl]oxy]heptanoic acid]
- IC50: 3.3 µM

Compound: 1-[4-[(5-chloro-1,3-dimethyl-pyrazol-4-yl)sulfonylamino]-2-naphthyl]piperidine-3-carboxylic acid; 2,2,2-trifluoroacetic acid [Example 11]
- IC50: 26.7 µM

Compound: Cc1cc(C)c(C)c(S(=O)(=O)Nc2ccc(C(CC(=O)O)c3ccccc3)c3ccccc23)c1C (stereo not shown) [Example 13, 3-phenyl-3-[4-[(2,3,5,6-tetramethylphenyl)sulfonylamino]-1-naphthyl]propanoic acid]
- IC50: 6.5 µM

Compound: Cc1cc(C)c(C)c(S(=O)(=O)Nc2cc(N3CCCC(C(=O)O)C3)cc3ccccc23)c1C (stereo not shown) [Example 12, 1-[4-[(2,3,5,6-tetramethylphenyl)sulfonylamino]-2-naphthyl]piperidine-3-carboxylic acid; 2,2,2-trifluoroacetic acid]
- IC50: 8.6 µM

From EP2998292A1, “Naphthyl sulfonamide derivatives as KEAP-1 modulators for the treatment of diabetes, obesity, dyslipidemia and related disorders” (SANOFI, priority 2014, dated 2016)
